For the test, the target named is T1, PTP1B (Homo sapiens, UniProt P18031, C32S/C92V/K197C).
T1 construct: gene PTPN1; residues 1–321
T1 sequence (P18031 1-321 C32S/C92V/K197C): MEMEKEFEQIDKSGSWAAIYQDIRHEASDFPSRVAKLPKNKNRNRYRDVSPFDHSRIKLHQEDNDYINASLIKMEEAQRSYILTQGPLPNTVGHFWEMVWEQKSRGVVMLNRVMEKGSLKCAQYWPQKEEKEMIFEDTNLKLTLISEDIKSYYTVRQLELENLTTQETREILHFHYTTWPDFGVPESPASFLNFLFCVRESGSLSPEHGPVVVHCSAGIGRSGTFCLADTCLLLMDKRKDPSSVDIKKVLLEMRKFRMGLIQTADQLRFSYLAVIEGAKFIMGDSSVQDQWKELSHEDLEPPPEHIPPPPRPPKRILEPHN
Description: crystal structure of tethered complex ([…] Å); mass-spectrometry tethering EC50 […]; pNPP inhibition Ki. The test is classed as biochemical.

The structures appear in SMILES notation.

For orientation: Ki means the equilibrium dissociation constant of an inhibitor or competing ligand from its target.

Take `CN(C)CCSSCC(=O)Nc1cc(-c2ccc(F)cc2F)ccc1O` [compound 2, 2]: the Ki stood at 7.1 ± 1.1 µM.

The values above are taken from PMC6039181, “An expanded allosteric network in PTP1B by multitemperature crystallography, fragment screening, and covalent tethering” (eLife, 2018).
